Data taken from patent publication US5079257A, “Indoloquinone compounds” (priority 1986, dated 1992).
Converted amounts (≈) assume the structure as drawn. Read-outs that look alike come from different tables or passages of the source.

How the values were obtained:
L1210 cells [1] = test: L1210 activity in clonogenic assay (TNO Rijswijk); type: cell-based; conditions: Mus musculus, L1210, 192 h, read-out: ID-50 L1210, clonogenic assay
Excerpt: The indoloquinones II (formula II) have been tested in respect of their cytotoxic activity against L1210 cells and R-1 cells (Rhabdomyosarcoma Cells) in a bioliquid assay at the department of oncology of the Free University of Amsterdam (Table I). In addition to this seven compounds (E.O. 1, E.O. 2, E.O. 4, E.O. 7, E.O. 9, E.O. 16 and E.O. 17) have been tested on L1210 activity in a clonogenic assay at TNO, Rijswijk. Further, the lowest active doses of the compounds E.O. 1, E.O. 2, E.O. 4 and E.O. 9 have been determined at TNO Rijswijk, according to the method described by Lamberts et al. [Oncology, 40, 301 (1983)]. (Table II). Eight indoloquinones (E.O. 1, E.O. 2, E.O. 4, E.O. 4A, E.O. 8, E.O. 9, E.O. 33 and E.O. 35) have been tested in a panel of five human tumour lines (TNO Rijswijk; Table III). From the latter group three indoloquinones (E.O. 1, E.O. 4 and E.O. 9) have been selected for a cytotoxicity study, involving five slowly growing human tumour lines (University of Freiburg; Table IV).
The L1210 clonogenic assay used was an improved variant of the method described earlier by H. MARTIN et al. [Cancer Chemother., Rep., 51 451 (1967)] and L. M. van Putten et al. [Cancer Treat. Rep., 60, 373 (1976)] for the growth into colonies of L1210 cells in a soft agar medium. From a suspension culture ~100 L1210 Cells (0.1 ml) were plated into […] culture dishes (Falcon), containing 1 ml of soft agar growth medium and the compound to be tested in appropriate concentrations. The soft agar growth medium consisted of Dulbecco medium supplemented with 15.8% horse serum, 60 μmol 2-mercapto-ethanol, 20 mg/ml L-asparagine and 0.3% bacto agar (Difco).
The culture dishes were incubated at 37° C. in an atmosphere of 1% CO2 in humidified air for 8 days. After this period of continuous drug exposure, colonies were counted and dose-effect curves were made.

in vivo = test: in vivo; parameters: species or system mice; conditions: mouse, IP, single dose, suspension in carboxymethyl cellulose (2%)
Description: The acute toxicity experiments were carried out with male C5 Black/Rij X CBA/Rij Fl hybrid mice at TNO, Rijswijk. The drugs were administrated IP as suspensions in carboxymethyl cellulose (2%) as a single dose at the first day.

L1210 [2] = test: In vivo L1210 experiments (TNO Rijswijk); parameters: species or system mice
Description: The in vivo L1210 experiments were carried out in male Balb/c X DBA.2 Fl hybrid mice at TNO, Rijswijk.
In these experiments also, the drugs were administered IP as suspensions in carboxymethyl cellulose […] as a single dose at the first day.

[3] = in vitro and in mice; cited from earlier work
[4] = tested on: R-1 cells (Rhabdomyosarcoma Cells); test: R-1 activity (bioliquid assay), cytotoxicity; type: cell-based; conditions: Rhabdomyosarcoma cell
Summary of the method: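 Rhabdomyosarcoma R-1 cells (~10^6 per dish) in Dulbecco's medium with 10% FCS were exposed to drug solution, which was then replaced by fresh medium. Cells were trypsinized after 48 hours and counted electronically.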

L1210 cells [5] = test: L1210 activity (bioliquid assay), cytotoxicity; type: cell-based; conditions: Mus musculus
Summary of the method: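 Suspension culture in RPMI with 15% FCS and 2-mercaptoethanol (60 μmol). Continuous compound exposure for 48 hours at 37° C under 5% CO2 in humidified air. Cell numbers then counted on an electronic microcell counter.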

[6] = tested on: A 204 cells; rhabdomyosarcoma; test: In vitro panel of human tumour lines (TNO): A 204; type: cell-based; conditions: about 72 hours; note: key: -: no inhibition of cell growth; +: total cell-kill
Description: (§1) Compounds E.O. 1, E.O. 2, E.O. 4, E.O. 4A, E.O. 8, E.O. 9, […], E.O. 33, and E.O. 35 were tested for their activity against five human tumour cell lines at the Radiobiological Institute TNO Rijswijk.
(§2) The new in vitro prescreen uses human tumour clones; it was set up by Dr. P. Lelieveld at TNO Rijswijk and comprises testing compounds in a bioliquid assay for their cytostatic activity against the following five human tumour lines:
(§3) After a continuous exposure to the drugs to be tested and to Adriamycin in `24 well tissue culture clusters, type 3524 (Costar)`, the remaining cells are fixed and stained. Using increasing drug concentrations the inhibiting concentration can be estimated qualitatively.
(§4) Cells: the human tumour cells are maintained in Dulbecco's medium supplemented with 10 percent foetal calf serum.
(§5) A, T and Z cell suspensions: 5·10^4 cells/ml
(§6) The cells were grafted into 16 mm wells for 48 hours (0.5 ml cell suspension per well was used).
(§7) Drugs: the compound to be tested was dissolved in appropriate concentrations in a mixture of Hepes-buffered Hanks' balanced salt solution and ethanol. The drug solutions (0.05 ml) were added to the different wells. The final ethanol concentration in each well was less than one percent.
(§8) The cells were continuously incubated with the compound under test at 37° in an atmosphere of 10 percent CO2 in humidified air for about 72 hours.
(§9) Determination of the inhibiting dose: the cells were fixed and stained with a solution of crystal violet in methanol/formaldehyde.

MCF7 breast cancer cells = test: In vitro panel of human tumour lines (TNO): MCF-7; type: cell-based; conditions: about 72 hours; note: key: -: no inhibition of cell growth; +: total cell-kill
Description: as §1, §2, §3, §4
(§10) M and W cell suspensions: 10^5 cells/ml.
as §6, §7, §8, §9

[7] = tested on: T 24 cells; bladder carcinoma; test: In vitro panel of human tumour lines (TNO): T 24; type: cell-based; conditions: about 72 hours; note: key: -: no inhibition of cell growth; +: total cell-kill
Description: as §1, §2, §3, §4, §5, §6, §7, §8, §9

WiDr cells; colon tumour = test: In vitro panel of human tumour lines (TNO): WiDr; type: cell-based; conditions: about 72 hours; note: key: -: no inhibition of cell growth; +: total cell-kill
Description: as §1, §2, §3, §4, §10, §6, §7, §8, §9

IgR37 cells melanoma = test: In vitro panel of human tumour lines (TNO): IgR-37; type: cell-based; conditions: about 72 hours; note: key: -: no inhibition of cell growth; +: total cell-kill
Description: as §1, §2, §3, §4, §5, §6, §7, §8, §9

Ovarian (MRI-H-207) line = type: in vivo, human; conditions: 5 mg/kg, days of treatment 0.7
Excerpt: The xenograft experiments have been carried by Dr. H. H. Fiebig of the University of Freiburg [Lung-NSCLC (LXGF) line, Renal line, Breast line; See: H. H. Fiebig et al., Behring Inst. Mitt., 74 343] and by Dr. E. Boven of the Free University Hospital Amsterdam [Ovarian (MRI-H-207) line; See: E. Boven et al., Cancer Res., 45, 86 (1985) and E. Boven et al., Eur. J. Clin. Oncol., 21, 1253 (1985)].
Mice: C57B1 athymic (nu/nu) female mice, 8 to 10 weeks of age were used for s.c. bilateral implantation of tumour fragments 2 mm diameter.
Treatment: E.O. 9 was dissolved in saline at a concentration of 0.5 mg/ml prior to administration. Drug doses and schedules were derived from studies in experimental murine tumour systems and from orientation studies in non-tumour-bearing nude mice. Treatment was started i.v. when tumours measured 50-150 mm^3. After randomization a group of 6-7 tumour-bearing mice was treated and a group of 5-6 tumour-bearing mice served as control.
Evaluation of efficacy: Tumours were measured twice weekly in three dimensions. Efficacy was expressed as the mean of relative tumour volume in treated animals vs. that in control animals×100 (% T/C). The optimal value was calculated within 35 days after the last injection. Toxic death (dead mice within two weeks after the last injection) were excluded from the evaluation.
MRI-H-207: An undifferentiated adenocarcinoma kindly provided by Dr. A. E. Bogden, Worcester, Mass, with a doubling time of 3-5 days.

L1210 [8] = conditions: 3-6 mg/kg; Remers et al., J. Med. Chem. 26 16 (1983); cited from earlier work
[9] = tested on: breast, pancreatic and prostatic adenocarcinomas, colon, bladder, lung and gastro-intestinal cancer; conditions: cited from earlier work
DNA = conditions: cited from earlier work
[10] = tested on: supercoiled covalently closed circular (CCC) DNA; conditions: reducing agent, presence of oxygen; cited from earlier work
[11] = Half-wave reduction potentials / polarography (University of Utrecht); type: physicochemical
Summary of the method: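 Polarographic half-wave potentials (E1/2) measured; only the first, quinone, reduction potential is reported.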

[12] = Cytotoxic activity (test not specified); type: cell-based
[13] = 8 days continuous exposure, TNO Rijswijk

CCCCn1c(/C=C/CO)c(CO)c2c1C(=O)C=C(N1CC1)C2=O [E.O. 17, 5-Aziridino-3-hydroxymethyl-1-butyl-2-[1H-indole-4,7-dione]prop-β-en-αol]
IC50 (L1210 cells [1]): 0.3 µg/mL (≈ 0.908 µM)
LD50 (in vivo): 50 to 80 mg/kg

CCCCn1c(/C=C/CO)c(CO)c2c1C(=O)C=C(OC)C2=O [E.O. 16, 3-Hydroxymethyl-5-methoxy-1-butyl-2-[1H-indole-4,7-dione]prop-β-en-α-ol]
IC50 (L1210 cells [1]; [13]): 0.9 µg/mL (≈ 2.82 µM)
LD50 (in vivo): 80 mg/kg
response vs control in vivo at 80 mg/kg (L1210 [2]; Mus musculus, L1210, 80 mg/kg IP single dose, read-out: % T/C): 89%
response vs control in vivo at 100 mg/kg (L1210 [2]; Mus musculus, L1210, 100 mg/kg IP single dose, read-out: % T/C): 100%

COC1=C(C)C(=O)c2c(c(COC(N)=O)c3n2CCC3)C1=O [7-methoxymitosene]
antibacterial activity [3]: important antibacterial activity in vitro and in mice

CO[C@@]12[C@H](COC(N)=O)C3=C(C(=O)C(C)=C(N)C3=O)N1C[C@@H]1N[C@@H]12 [MMC, mitomycin C, reference compound]
IC50 ([4]; Table VIII, read-out: ID-50 R-1): 0.03 µg/mL (≈ 0.0897 µM)
IC50 (L1210 cells [5]; L1210, 48 h, Table VIII, read-out: ID-50 L1210): 0.05 µg/mL (≈ 0.15 µM)
in vitro activity score, A 204 ([6]; 0.01 μg/ml): -
in vitro activity score, A 204 ([6]; 1.0 μg/ml): +
in vitro activity score, A 204 ([6]; 10 μg/ml): +
in vitro activity score, MCF-7 (MCF7 breast cancer cells; 0.01 μg/ml): -
in vitro activity score, MCF-7 (MCF7 breast cancer cells; 0.1 μg/ml): -
in vitro activity score, MCF-7 (MCF7 breast cancer cells; 10 μg/ml): +
in vitro activity score, T 24 ([7]; 0.01 μg/ml): -
in vitro activity score, T 24 ([7]; 10 μg/ml): +
in vitro activity score, WiDr (WiDr cells; colon tumour; 0.01 μg/ml): -
in vitro activity score, WiDr (WiDr cells; colon tumour; 0.1 μg/ml): -
in vitro activity score, WiDr (WiDr cells; colon tumour; 10 μg/ml): +
in vitro activity score, IgR-37 (IgR37 cells melanoma; 0.01 μg/ml): -
in vitro activity score, IgR-37 (IgR37 cells melanoma; 1.0 μg/ml): +
in vitro activity score, IgR-37 (IgR37 cells melanoma; 10 μg/ml): +
response vs control in vivo at 4 mg/kg (L1210 [2]; Mus musculus, L1210, 4 mg/kg IP single dose, read-out: % T/C): 200%
response vs control in vivo at 5 mg/kg (L1210 [2]; Mus musculus, L1210, 5 mg/kg IP single dose, read-out: % T/C): 175%
response vs control in vivo at 6 mg/kg (L1210 [2]; Mus musculus, L1210, 6 mg/kg IP single dose, read-out: % T/C): 175%
toxic deaths (Ovarian (MRI-H-207) line): 1/7
max. effect (% T/C) (L1210 [8]): 124-153%
antitumour activity [9]: active against breast, pancreatic and prostatic adenocarcinomas, and notably against colon, bladder, lung and gastro-intestinal cancer
DNA crosslinks (DNA): caused rapid DNA instrand crosslinks in a dose dependent fashion
DNA strand breaks [10]: produced single strand breaks

COC1=CC(=O)c2c(c(CO)c(/C=C/CO)n2C)C1=O [E.O. 7, 3-Hydroxymethyl-5-methoxy-1-methyl-2-[1H-indole-4,7-dione]prop-β-en-α-ol]
IC50 ([4]; Table I, bioliquid assay, read-out: ID-50 R-1): 4.2 µg/mL (≈ 15.1 µM)
IC50 (L1210 cells [5]; L1210, Table I, bioliquid assay, 48 hours, read-out: ID-50 L1210): 0.5 µg/mL (≈ 1.8 µM)
IC50 (L1210 cells [1]; [13]): 2.2 µg/mL (≈ 7.93 µM)
direct current polarogram ([11]; DC-polarography): a reduction wave representing the reversible reduction of the benzoquinone nucleus
half-wave potential E1.2, wave I ([11]; pH = 8 vs Ag/AgCl): -367 mV
LD50 (in vivo): > 100 mg/kg
% T/C (L1210 [2]; 250 mg/kg IP single dose): tox.

COC(=O)/C=C/c1c(C(=O)OC)c2c(n1C)C(=O)C=C(N1CC1)C2=O [E.O. 22, Methyl 5-aziridino-3-methoxycarbonyl-1-methyl-2-[1H-indole-4,7-dione]acrylate]
IC50 ([4]; read-out: ID-50 R-1, Table IA, para-indoloquinone diesters): 0.5 µg/mL (≈ 1.45 µM)
IC50 (L1210 cells [5]; L1210, 48 h, read-out: ID-50 L1210, Table IA, para-indoloquinone diesters): 0.01 µg/mL (≈ 0.029 µM)
in vitro activity score, A 204 ([6]; 0.01 μg/ml): -
in vitro activity score, A 204 ([6]; 0.1 μg/ml): -
in vitro activity score, A 204 ([6]; 1.0 μg/ml): +
in vitro activity score, MCF-7 (MCF7 breast cancer cells; 0.01 μg/ml): -
in vitro activity score, MCF-7 (MCF7 breast cancer cells; 0.1 μg/ml): -
in vitro activity score, T 24 ([7]; 0.01 μg/ml): -
in vitro activity score, T 24 ([7]; 0.1 μg/ml): -
in vitro activity score, T 24 ([7]; 1.0 μg/ml): +
in vitro activity score, WiDr (WiDr cells; colon tumour; 0.01 μg/ml): -
in vitro activity score, WiDr (WiDr cells; colon tumour; 0.1 μg/ml): -
in vitro activity score, IgR-37 (IgR37 cells melanoma; 0.01 μg/ml): -
in vitro activity score, IgR-37 (IgR37 cells melanoma; 0.1 μg/ml): -
in vitro activity score, IgR-37 (IgR37 cells melanoma; 1.0 μg/ml): +
E1/2, halve wave reduction potential ([11]; Table IA, only the first (quinone) reduction potential): -179 mV
cytotoxic activities [12]: high cytotoxic activities
